# How the values were obtained:
# [1] = molecular target: FLNA pentapeptide VAKGL (SEQ ID NO: 1) (Homo sapiens, UniProt P21333); assay: FITC-NLX-based FLNA screening assay; assay type: binding; details: for inhibition at 0.0001 µM: 0.1 nM compound; for inhibition at 0.0001 µM / inhibition at 0.001 µM / inhibition at 0.01 µM / inhibition at 0.1 µM / inhibition at 1 µM: 100 nM frozen-stored FITC-NLX, average of two runs, read-out: Percent inhibition of FITC-NLX binding, preliminary study; for inhibition at 0.001 µM: 1 nM compound; for inhibition at 0.01 µM: 10 nM compound; for inhibition at 0.1 µM: 100 nM compound; for inhibition at 1 µM: 1 μM compound; for Percent Binding Inhibition (FITC-NLX binding to Bn-VAKGL): 10 nM FITC-NLX
# [2] = molecular target: T1, α7nAChR-FLNA association (Rattus norvegicus, UniProt A0A8I5ZV49); assay: Rat frontal cortical synaptosomes treated with Aβ42, anti-FLNA immunoprecipitation / Western blot; assay type: cell-based
# T1 construct: from tissue; host or cells: rat frontal cortical synaptosomes
# From the text: The α7nAChR-FLNA complexes in the solubilized synaptosomes were immunoprecipitated with immobilized anti-FLNA and the α7nAChR and FLNA levels in the anti-FLNA immunoprecipitates determined by Western blotting (FIG. 14A) and quantified by densitometry for illustrative compounds (FIG. 14B). n=3. […] The letter designation “M” that accompanies many of the “C-series” compounds is omitted from FIG. 14, the remaining figures and most discussions of the figures and compounds hereinafter for ease in expression. Structural formulas of the compounds used in this and the other figures are provided hereinafter.
# (§1) The complexes in the solubilized synaptosomes, and α7nAChR, TLR4 and FLNA levels in the anti-FLNA immunoprecipitates were determined by Western blotting (FIG. 15A) in which numerals outside of and to the left of the blots are as discussed before. Amounts present in the blots were quantified by densitometry (FIG. 15B). […] Structural formulas of the compounds used in this and the other figures are provided hereinafter.
# [3] = molecular target: T2, mu opiate receptor (MOR) (Rattus norvegicus, UniProt P33535); assay: MOR agonist activity using [35S]GTPγS binding assay in striatal membranes; assay type: biochemical; details: for MOR agonist activity, [35S]GTPγS binding, FLNA-binding compound as agonist at 0.1 μM: 0.1 μM compound; for MOR agonist activity, [35S]GTPγS binding, FLNA-binding compound as agonist at 0.1 μM / MOR agonist activity, [35S]GTPγS binding, 1 μM + BFNA / MOR agonist activity, [35S]GTPγS binding, FLNA-binding compound as agonist at 1 μM: striatal membranes; for MOR agonist activity, [35S]GTPγS binding, FLNA-binding compound as agonist at 0.1 μM / MOR agonist activity, [35S]GTPγS binding, FLNA-binding compound as agonist at 1 μM: Series C-2; for MOR agonist activity, [35S]GTPγS binding, 1 μM + BFNA: 1 μM compound + 1 μM β-FNA (MOR antagonist); for MOR agonist activity ([35S]GTPγS binding to Gαo), preliminary study: average of two runs
# T2 construct: from tissue; host or cells: striatal tissue (membrane preparation)
# Description: To assess the mu opiate receptor (MOR) agonist activity of positive compounds from the FLNA screening, compounds were tested in a [^35S]GTPγS binding assay using striatal membranes. […] This assay measures a functional consequence of receptor occupancy at one of the earliest receptor-mediated events. The assay permits for traditional pharmacological parameters of potency, efficacy and antagonist affinity, with the advantage that agonist measures are not subjected to amplification or other modulation that may occur when analyzing parameters further downstream of the receptor.
# Thus, striatal tissue was homogenized in 10 volumes of ice cold 25 mM HEPES buffer, pH 7.4, which contained 1 mM EGTA, 100 mM sucrose, 50 μg/ml leupeptin, 0.04 mM PMSF, 2 μg/ml soybean trypsin inhibitor and 0.2% 2-mercaptoethanol. The homogenates were centrifuged at 800×g for 5 minutes and the supernatants were centrifuged at 49,000×g for 20 minutes.
# The resultant striatal membrane preparation (200 μg) was admixed and maintained (incubated) at 30° C. for 5 minutes in reaction buffer as above that additionally contained 1 mM MgCl2 and 0.5 nM [^35S]GTPγS (0.1 μCi/assay, PerkinElmer Life and Analytical Sciences) in a total volume of 250 μl and continued for 5 minutes in the absence or presence of 0.1-10 μM of an assayed compound of interest. The reaction was terminated by dilution with 750 μl of ice-cold reaction buffer that contained 20 mM MgCl2 and 1 mM EGTA and immediate centrifugation at 16,000×g for 5 minutes.
# Normal rabbit serum (1 μl) was added to 1 ml of lysate and incubated at 25° C. for 30 minutes. Nonspecific immune complexes were removed by incubation with 25 μl of protein A/G-conjugated agarose beads at 25° C. for 30 minutes followed by centrifugation at 5,000×g at 4° C. for 5 minutes. The supernatant was divided and separately incubated at 25° C. for 30 minutes with antibodies raised against Gαo proteins (1:1,000 dilutions).
# The immunocomplexes so formed were collected by incubation at 25° C. for 30 minutes with 40 μl of agarose-conjugated protein A/G beads and centrifugation at 5,000×g at 4° C. for 5 minutes. The pellet was washed and suspended in buffer containing 50 mM Tris-HCl, pH 8.0, and 1% NP-40. The radioactivity in the suspension was determined by liquid scintillation spectrometry.
# [4] = molecular target: T3, TLR4/FLNA (Rattus norvegicus, UniProt A0A8I5ZV49); assay: Rat frontal cortical synaptosomes treated with Aβ42, anti-FLNA immunoprecipitation / Western blot; assay type: cell-based; details: 1 or 10 nM compound, simultaneously or 10 min prior to 0.1 μM Aβ42; Dunnett's test
# T3 construct: from tissue; host or cells: rat frontal cortical synaptosomes
# Description: as §1
# [5] = 0.1 or 1 nM compound, simultaneously with or 10 min prior to Aβ42
# T1 sequence (A0A8I5ZV49 1-2647): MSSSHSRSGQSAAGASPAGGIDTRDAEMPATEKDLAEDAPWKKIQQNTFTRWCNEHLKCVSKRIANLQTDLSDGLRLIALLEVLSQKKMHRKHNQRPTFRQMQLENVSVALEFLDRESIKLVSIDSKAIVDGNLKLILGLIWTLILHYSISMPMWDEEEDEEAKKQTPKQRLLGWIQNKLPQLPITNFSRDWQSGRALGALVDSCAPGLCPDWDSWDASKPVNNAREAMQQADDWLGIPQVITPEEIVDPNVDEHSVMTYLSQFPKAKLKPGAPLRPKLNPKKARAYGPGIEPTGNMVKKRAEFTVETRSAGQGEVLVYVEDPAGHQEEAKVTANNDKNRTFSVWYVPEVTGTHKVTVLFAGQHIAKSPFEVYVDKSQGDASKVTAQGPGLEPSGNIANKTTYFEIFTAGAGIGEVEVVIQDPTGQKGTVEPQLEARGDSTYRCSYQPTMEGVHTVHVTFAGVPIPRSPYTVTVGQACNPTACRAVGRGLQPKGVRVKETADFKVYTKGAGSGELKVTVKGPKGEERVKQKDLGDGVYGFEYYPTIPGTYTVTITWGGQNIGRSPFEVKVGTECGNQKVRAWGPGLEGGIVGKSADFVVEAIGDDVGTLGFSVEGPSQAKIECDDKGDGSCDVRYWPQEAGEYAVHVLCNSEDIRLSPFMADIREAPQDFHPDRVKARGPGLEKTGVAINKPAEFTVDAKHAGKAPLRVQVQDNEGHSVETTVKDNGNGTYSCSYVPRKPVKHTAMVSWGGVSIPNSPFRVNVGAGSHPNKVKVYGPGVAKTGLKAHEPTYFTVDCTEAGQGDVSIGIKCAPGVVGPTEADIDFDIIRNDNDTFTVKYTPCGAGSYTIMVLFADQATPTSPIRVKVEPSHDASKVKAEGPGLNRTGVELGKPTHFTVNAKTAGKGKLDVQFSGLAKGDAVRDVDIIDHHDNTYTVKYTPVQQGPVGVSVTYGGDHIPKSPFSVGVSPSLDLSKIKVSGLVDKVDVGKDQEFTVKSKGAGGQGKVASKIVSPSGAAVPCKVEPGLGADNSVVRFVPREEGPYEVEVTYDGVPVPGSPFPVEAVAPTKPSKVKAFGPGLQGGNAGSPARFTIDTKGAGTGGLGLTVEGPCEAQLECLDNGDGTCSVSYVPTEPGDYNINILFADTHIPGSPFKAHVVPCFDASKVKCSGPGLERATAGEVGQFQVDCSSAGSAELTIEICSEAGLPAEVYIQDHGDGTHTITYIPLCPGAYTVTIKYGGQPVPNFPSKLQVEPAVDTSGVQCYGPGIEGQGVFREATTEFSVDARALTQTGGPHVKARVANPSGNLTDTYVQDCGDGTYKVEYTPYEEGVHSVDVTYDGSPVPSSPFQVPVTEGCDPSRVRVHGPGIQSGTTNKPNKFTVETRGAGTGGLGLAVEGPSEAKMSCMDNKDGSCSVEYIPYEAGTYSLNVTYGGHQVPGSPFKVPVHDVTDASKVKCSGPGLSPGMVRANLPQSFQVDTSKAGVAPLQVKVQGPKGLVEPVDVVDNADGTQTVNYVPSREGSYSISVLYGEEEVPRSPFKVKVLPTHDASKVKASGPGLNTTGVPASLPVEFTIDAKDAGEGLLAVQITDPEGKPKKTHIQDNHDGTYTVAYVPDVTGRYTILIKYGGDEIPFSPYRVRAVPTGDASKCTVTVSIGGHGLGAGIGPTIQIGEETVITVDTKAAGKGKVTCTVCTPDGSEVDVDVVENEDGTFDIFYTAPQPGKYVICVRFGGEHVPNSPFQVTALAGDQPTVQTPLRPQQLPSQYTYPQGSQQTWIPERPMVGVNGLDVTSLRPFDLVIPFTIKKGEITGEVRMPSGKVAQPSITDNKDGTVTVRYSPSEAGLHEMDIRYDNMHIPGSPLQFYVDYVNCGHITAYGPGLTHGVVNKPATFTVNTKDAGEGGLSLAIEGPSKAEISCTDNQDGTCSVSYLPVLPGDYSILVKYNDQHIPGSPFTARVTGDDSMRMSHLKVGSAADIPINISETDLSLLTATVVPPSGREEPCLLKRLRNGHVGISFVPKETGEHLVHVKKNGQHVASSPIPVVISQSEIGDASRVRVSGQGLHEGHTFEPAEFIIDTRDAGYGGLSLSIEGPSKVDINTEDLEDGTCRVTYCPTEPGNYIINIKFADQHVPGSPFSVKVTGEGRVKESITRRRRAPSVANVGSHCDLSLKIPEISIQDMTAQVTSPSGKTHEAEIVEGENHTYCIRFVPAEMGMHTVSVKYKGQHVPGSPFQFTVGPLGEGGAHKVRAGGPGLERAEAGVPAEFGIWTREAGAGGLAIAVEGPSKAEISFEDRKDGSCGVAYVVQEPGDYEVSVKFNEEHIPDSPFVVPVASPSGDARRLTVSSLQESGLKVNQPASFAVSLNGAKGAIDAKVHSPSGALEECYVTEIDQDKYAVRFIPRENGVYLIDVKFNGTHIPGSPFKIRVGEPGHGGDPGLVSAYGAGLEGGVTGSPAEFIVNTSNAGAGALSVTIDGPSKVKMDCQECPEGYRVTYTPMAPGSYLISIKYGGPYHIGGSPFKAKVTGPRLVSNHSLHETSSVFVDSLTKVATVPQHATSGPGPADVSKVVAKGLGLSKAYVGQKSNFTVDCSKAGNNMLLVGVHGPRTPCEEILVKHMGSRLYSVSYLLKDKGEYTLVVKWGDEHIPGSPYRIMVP
# T2 sequence (P33535 whole entry): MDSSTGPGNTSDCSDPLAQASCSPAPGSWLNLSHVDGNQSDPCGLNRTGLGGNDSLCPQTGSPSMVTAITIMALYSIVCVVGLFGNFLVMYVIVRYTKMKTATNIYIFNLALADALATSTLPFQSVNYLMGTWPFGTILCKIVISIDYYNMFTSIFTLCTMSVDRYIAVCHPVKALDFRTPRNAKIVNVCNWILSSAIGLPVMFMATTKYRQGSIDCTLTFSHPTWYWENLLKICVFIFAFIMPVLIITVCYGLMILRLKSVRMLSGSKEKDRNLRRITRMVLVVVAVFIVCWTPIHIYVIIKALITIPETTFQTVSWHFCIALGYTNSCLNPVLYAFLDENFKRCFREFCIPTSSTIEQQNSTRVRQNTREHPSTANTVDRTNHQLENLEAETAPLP
# T3 sequence (A0A8I5ZV49 1-2647): as the sequence (A0A8I5ZV49 1-2647) above
compound,measurement,setting,value
Nalbuphine [reference compound],Binding to the FLNA pentapeptide of SEQ ID NO: 1 (in words),[1],bind well
CC1CCC(C(C)C)C(OCC(O)CN2CCCc3ccccc32)C1 (stereo not drawn) [Compound A0068],Effect on Aβ42-induced α7nAChR-FLNA association (in words),[2]; [5],reduce α7nAChR-FLNA association
Nalorphine [reference compound],Binding to the FLNA pentapeptide of SEQ ID NO: 1 (in words),[1],bind well
CN1CCC2(CC1)NCC(=O)N2Cc1ccccc1 [Compound C0105M],"MOR agonist activity, [35S]GTPγS binding, FLNA-binding compound as agonist at 0.1 μM",[3],198.1%
same,"MOR agonist activity, [35S]GTPγS binding, 1 μM + BFNA",[3],73.1%
same,"MOR agonist activity, [35S]GTPγS binding, FLNA-binding compound as agonist at 1 μM",[3]; 1 μM compound,220.3%
same,Effect on Aβ42-induced α7nAChR-FLNA association (in words),[2]; [5],reduce α7nAChR-FLNA association
O=S(=O)(c1ccc(OC(F)(F)F)cc1)N1CCOC12CCN(CC1CC1)CC2 [Compound 4],"MOR agonist activity ([35S]GTPγS binding to Gαo), preliminary study",[3]; 0.1 μM compound as agonist,133.9%
same,"MOR agonist activity ([35S]GTPγS binding to Gαo), preliminary study",[3]; 1 μM + βNFA,49.5%
same,"MOR agonist activity ([35S]GTPγS binding to Gαo), preliminary study",[3]; 1 μM compound as agonist,165.2%
same,inhibition at 0.0001 µM,[1],18.8%
same,inhibition at 0.001 µM,[1],21.3%
same,inhibition at 0.01 µM,[1],17.9%
same,inhibition at 0.1 µM,[1],28.8%
same,inhibition at 1 µM,[1],42.9%
"CO[C@]12CC[C@@]3(C[C@@H]1C(C)(O)C(C)(C)C)[C@H]1Cc4ccc(O)c5c4[C@@]3(CCN1CC1CC1)[C@H]2O5 (stereo partly drawn) [Buprenorphine, reference compound]",Binding to the FLNA pentapeptide of SEQ ID NO: 1 (in words),[1],bind well
O=C1CNC2(CCN(CC3CC3)CC2)N1Cc1ccccc1 [Compound C0124M],TLR4/FLNA ratio versus Aβ42 alone (in words),[4],statistically different from Aβ42 alone
same,"MOR agonist activity, [35S]GTPγS binding, FLNA-binding compound as agonist at 0.1 μM",[3],252.0%
same,"MOR agonist activity, [35S]GTPγS binding, 1 μM + BFNA",[3],61.4%
same,"MOR agonist activity, [35S]GTPγS binding, FLNA-binding compound as agonist at 1 μM",[3]; 1 μM compound,305.1%
same,Effect on Aβ42-induced α7nAChR-FLNA association (in words),"[2]; 1 or 10 nM compound, simultaneously or 10 min prior to 0.1 μM Aβ42",reduce α7nAChR-FLNA association
CC1CCC(C(C)C)C(OCC(O)CN2CCc3ccccc3C2)C1 (stereo not drawn) [Compound A0040],Effect on Aβ42-induced α7nAChR-FLNA association (in words),[2]; [5],reduce α7nAChR-FLNA association
"C=CCN1CC[C@]23c4c5ccc(O)c4O[C@H]2C(=O)CC[C@]3(O)[C@H]1C5 [(+) NLX, (+)naloxone, reference compound]",Effect on Aβ42-induced α7nAChR-FLNA association (in words),[2]; [5],reduce α7nAChR-FLNA association
C=CCN1CCC2(CC1)OCCN2S(=O)(=O)c1ccc(C)cc1 [Compound 10],"MOR agonist activity ([35S]GTPγS binding to Gαo), preliminary study",[3]; 0.1 μM compound as agonist,163.1%
same,"MOR agonist activity ([35S]GTPγS binding to Gαo), preliminary study",[3]; 1 μM + βNFA,60.4%
same,"MOR agonist activity ([35S]GTPγS binding to Gαo), preliminary study",[3]; 1 μM compound as agonist,191.8%
same,inhibition at 0.0001 µM,[1],27.5%
same,inhibition at 0.001 µM,[1],27.3%
same,inhibition at 0.01 µM,[1],26.6%
same,inhibition at 0.1 µM,[1],27.3%
same,inhibition at 1 µM,[1],34.5%
CC1CCC(C(C)C)C(OCC(CN2CC(C)OC(C)C2)NCc2ccccc2)C1 (stereo not drawn) [Compound A0033],Effect on Aβ42-induced α7nAChR-FLNA association (in words),[2]; [5],reduce α7nAChR-FLNA association
O=C1CNC2(CCN(S(=O)(=O)c3ccc(O)cc3)CC2)N1Cc1ccccc1 [Compound C0148M],Percent Binding Inhibition (FITC-NLX binding to Bn-VAKGL),[1]; 0.01 μM FLNA-binding compound,46.2%
same,Percent Binding Inhibition (FITC-NLX binding to Bn-VAKGL),[1]; 0.1 μM FLNA-binding compound,52.0%
same,Percent Binding Inhibition (FITC-NLX binding to Bn-VAKGL),[1]; 1 μM FLNA-binding compound,57.0%
"CN1CC[C@]23c4c5ccc(O)c4O[C@H]2[C@@H](O)C=C[C@H]3[C@H]1C5 [morphine, reference compound]",Binding to the FLNA pentapeptide of SEQ ID NO: 1 (in words),[1],do not bind
Cc1ccc(S(=O)(=O)N2CCOC23CCN(CC2CCC2)CC3)cc1 [Compound 9],"MOR agonist activity ([35S]GTPγS binding to Gαo), preliminary study",[3]; 0.1 μM compound as agonist,156.6%
same,"MOR agonist activity ([35S]GTPγS binding to Gαo), preliminary study",[3]; 1 μM + βNFA,56.6%
same,"MOR agonist activity ([35S]GTPγS binding to Gαo), preliminary study",[3]; 1 μM compound as agonist,197.2%
same,inhibition at 0.0001 µM,[1],22.5%
same,inhibition at 0.001 µM,[1],24.8%
same,inhibition at 0.01 µM,[1],27.7%
same,inhibition at 0.1 µM,[1],35.3%
same,inhibition at 1 µM,[1],49.6%
COc1ccc(OCC(O)CN2CCc3ccccc3C2)cc1 (stereo not drawn) [Compound A0053],Effect on Aβ42-induced α7nAChR-FLNA association (in words),[2]; [5],reduce α7nAChR-FLNA association
C=CCN1CCC2(CC1)OCCN2S(=O)(=O)c1ccc(C(C)=O)cc1 [Compound C0096M],"MOR agonist activity, [35S]GTPγS binding, FLNA-binding compound as agonist at 0.1 μM",[3],186.4%
same,"MOR agonist activity, [35S]GTPγS binding, 1 μM + BFNA",[3],127.1%
same,% DAMGO (1 μM),"[3]; 1 μM compound, relative to DAMGO",130.0%
same,"MOR agonist activity, [35S]GTPγS binding, FLNA-binding compound as agonist at 1 μM",[3]; 1 μM compound,328.9%
COc1ccc(S(=O)(=O)N2CCC3(NCCO3)C3CCCCC32)cc1 (stereo not drawn) [Compound C0144M-2],"MOR agonist activity, [35S]GTPγS binding, FLNA-binding compound as agonist at 0.1 μM",[3],186.3%
same,"MOR agonist activity, [35S]GTPγS binding, 1 μM + BFNA",[3],125.9%
same,"MOR agonist activity, [35S]GTPγS binding, FLNA-binding compound as agonist at 1 μM",[3]; 1 μM compound,295.9%
O=S(=O)(c1ccccc1Oc1ccccc1)N1CCC2(CC1)NCCO2 [Compound C0149M-2],"MOR agonist activity, [35S]GTPγS binding, FLNA-binding compound as agonist at 0.1 μM",[3],209.8%
same,"MOR agonist activity, [35S]GTPγS binding, 1 μM + BFNA",[3],93.4%
same,"MOR agonist activity, [35S]GTPγS binding, FLNA-binding compound as agonist at 1 μM",[3]; 1 μM compound,406.7%
CC(=O)c1ccc(C(=O)N2CCC3(CC2)OCCN3S(=O)(=O)c2ccc(C(C)=O)cc2)cc1 [Compound C0052],% DAMGO + BFNA,"[3]; Series C-1, 1 μM compound + BFNA relative to DAMGO + BFNA",97.0%
CC(=O)c1ccc(S(=O)(=O)N2CC(CN(C)C)OC23CCN(CC2CC2)CC3)cc1 (stereo not drawn) [Compound C0128M],"MOR agonist activity, [35S]GTPγS binding, FLNA-binding compound as agonist at 0.1 μM",[3],197.8%
same,"MOR agonist activity, [35S]GTPγS binding, 1 μM + BFNA",[3],63.9%
same,"MOR agonist activity, [35S]GTPγS binding, FLNA-binding compound as agonist at 1 μM",[3]; 1 μM compound,286.0%
O=C1CNC2(CCNCC2)N1Cc1ccccc1 [Compound C0114M],"MOR agonist activity, [35S]GTPγS binding, FLNA-binding compound as agonist at 0.1 μM",[3],114.0%
same,"MOR agonist activity, [35S]GTPγS binding, 1 μM + BFNA",[3],35.9%
same,"MOR agonist activity, [35S]GTPγS binding, FLNA-binding compound as agonist at 1 μM",[3]; 1 μM compound,144.3%
same,Effect on Aβ42-induced α7nAChR-FLNA association (in words),[2]; [5],reduce α7nAChR-FLNA association

# — patent US10222368B2 (priority 2012, dated 2019)
